Test results published in PMC5491903, “The Selective Phosphoinoside-3-Kinase p110δ Inhibitor IPI-3063 Potently Suppresses B Cell Survival, Proliferation, and Differentiation” (Frontiers in Immunology, 2017).

What was measured:
[1] = system: phosphorylation of AKT at serine 473 in mouse primary B cells; assay: p-AKT (S473) western blot in αIgM + IL-4 stimulated mouse B cells; assay type: cell-based
Experimental: IPI-3063 is a p110δ selective compound with an IC50 = 0.1 nM in p110δ-specific cell-based assays and cellular IC50 values for the other class I PI3K isoforms are at least 1,000-fold higher (Table 2) ([11]). […] To test the effects of p110γ inhibition, we used AS-252424 compound with a biochemical IC50 = 30 nM for p110γ ([17]). We assessed the effects of both IPI-3063 and IPI-443 on PI3K activity in mouse primary B cells stimulated with αIgM + IL-4, by evaluating phosphorylation of AKT at the serine 473 residue (Figures 1A,C) as well as the phosphorylation of ERK1/2 on Thr202/Tyr204 residues (Figures 1B,C). Cells were treated with a pan-PI3K inhibitor GDC-0941 or with various concentrations of IPI-3063 or IPI-443, or DMSO (0.1%) as the diluent control. Separate cultures were treated with the p110γ inhibitor AS-252424 or its diluent control (0.1% EtOH). MK-2206, an AKT inhibitor, which also reduces AKT S473 phosphorylation, was also used as a control to show ERK1/2 phosphorylation is independent of AKT activity. […]
Analysis was performed on western blots using ImageJ to measure mean fluorescence intensities of each band. Phospho-AKT S473 and phospho-ERK1/2 signal was normalized with actin measurements and fold change was calculated using the stimulated/no drug control.

[2] = system: mouse primary B cells; assay: mouse B cell antibody class switching to IgG1; assay type: cell-based; details: αCD40 + IL-4, 96 h
Text: Studies with p110δ inhibitors have shown that low PI3K signaling in B cells promotes antibody class switch recombination (CSR) and decreases differentiation into plasmablasts that secrete low-affinity IgM ([18], [19]). Activation of mouse primary B cells with αCD40 + IL-4 or LPS + IL-4 both induce IgG1 class switching while treatment with LPS alone induces the plasmablast differentiation fate (Figure 5A). In B cells stimulated with αCD40 + IL-4, IPI-3063 increased the percentage of B220^+ cells switching to IgG1 starting at 1 nM and approached the effect of GDC-0941 (Figure 5B).
Figure 5 IPI-3063 potently […] mouse B cell antibody switching and inhibits plasmablast differentiation. Purified B cells were pretreated with inhibitors, then stimulated with αCD40 + IL-4 (B) or LPS + IL-4 (C) for 96 h to induce switching to IgG1 or LPS (D) for 72 h to induce plasmablast differentiation. Class switching to IgG1 was measured by the 7AAD^−CFSE^loB220^+IgG1^+ cells [(A), upper panels]. Plasmablast percentages were calculated by % 7AAD^−CFSE^loCD138^+B220^lo population [(A), lower]. Supernatant was harvested (E) for IgM ELISA. […]
Mouse splenic B cells were purified by negative selection (eBioscience Magnisort Mouse B cell enrichment kit). B-cell purity was >95% as measured by FACS analysis (FACSCalibur and CellQuest software; BD Biosciences) using anti-B220 antibody (BioLegend). […]

Structure (SMILES): O=C1NC(=O)/C(=C/c2ccc(-c3ccc(F)cc3O)o2)S1 [AS-252424, reference compound]
- effect on p-AKT signaling ([1]; αIgM + IL-4, 100 nM, 300 nM, 1 µM): no significant effect
- effect on IgG1 switching [2]: no effect

Structure (SMILES): CC(C)n1c([C@H](C)Nc2ncnc(N)c2C#N)cc2cccc(-c3ccc(=O)n(C)c3)c2c1=O [IPI-3063]
- concentration with significant reduction of p-AKT ([1]; αIgM + IL-4, 30 min pretreatment, 1 h stimulation): 1 nM
- concentration that increases percentage of B220+ cells switching to IgG1 [2]: ≥ 1 nM
